In ChEMBL document CHEMBL1148052, “Cylindrene, a novel sesquiterpenoid from Imperata cylindrica with inhibitory activity on contractions of vascular smooth muscle” (1994):
Calls of active or inactive are those of the source. No cut-off for these calls is given here.

How the values were obtained:
Aorta [1] = assay: Inhibition of KCl-induced contraction in rabbit aorta at 300 uM; format: functional; settings: Oryctolagus cuniculus
Aorta [2] = assay: Inhibition of KCl-induced contraction in rabbit aorta at 100 nM; format: functional, tissue-based; settings: Oryctolagus cuniculus

SMILES	inhibition at 300 µM (Aorta [1]) [%]	Activity (Aorta [2])
CC(=O)c1cc(C(C)C)c2c(c1)C(C)(O)CC2 (configuration not stated) [CYLINDRENE]	40	–
NC[C@H](O)c1ccc(O)c(O)c1	–	inactive
